For this experiment, the system named is MDA-MB-468 breast. Put plainly: NCI-60 cell line screen, 48 h.

We go through 25 compounds from PubChem BioAssay (NCI).

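Step 1: Grow cells in 96-well plates. Step 2: Expose to compound for 48 hours at 5 concentrations. Step 3: Interpolate endpoints linearly; if unreached, use highest concentration. GI50: concentration for 50% inhibition of growth. TGI: total growth inhibition.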

`OC(c1cc(-c2ccccc2)nc2ccc(Cl)cc12)C1CCCCN1` (stereo not drawn): the GI50 was 2.01 µM and the TGI turned out to be 3.86 µM.

Consider `O=C(NCCO)Nc1ccc(-c2nc(N3CCOCC3)c3cccn3n2)cc1`, for which the GI50 is 0.0889 µM and the TGI stood at 2.35 µM.

Turning to `Nc1nc2c(c3ncncc13)C(c1cccc(C(F)(F)F)c1)Cc1ncncc1-2` (stereo not drawn), the GI50 is 2.78 µM and the TGI was found to be 8.89 µM.

As to `NCCOCCOCCNc1nc(Cc2ccccc2)nc(NCCCN2CCCC2=O)n1`, the GI50 is more than 100 µM and the TGI is more than 100 µM.

As to `O=c1cc(-c2ccccc2)[nH]c2ccccc12`, the GI50 was 0.481 µM.

On to `COc1ccc(-c2c3c(N)nc(-c4ccncc4)nc3nc3c2c(C)nn3-c2ccccc2)cc1`, for which the GI50 is 7.75 µM and the TGI is more than 100 µM.

On to `CC(C)C[C@H]1C(=O)O[C@H](C(C)C)C(=O)N(C)[C@@H](C(C)C)C(=O)O[C@H](C(C)C)C(=O)N(C)[C@@H](C(C)C)C(=O)O[C@H](C(C)C)C(=O)N1C`, for which the GI50 was 2.01 µM and the TGI was determined as 9.35 µM.

Turning to `COC(=O)[C@@]1(C)CC[C@]2(C)CC[C@]3(C)C4=CC=C5C(=CC(=O)C(O)=C5C)[C@]4(C)[C@@H](O)C[C@@]3(C)[C@@H]2C1`, the GI50 is 9.71 µM and the TGI was 21.9 µM.

Consider `Cc1ccc(-c2nc(C(Cl)Cl)nc3cc(-c4ccccc4)nn23)cc1`, for which the GI50 is 2.94 µM.

`COc1cc2c(c(OC)c1)C1c3ccccc3NC(=O)N1CC2` (stereo not drawn): the GI50 was 2.55 µM and the TGI came to 8.57 µM.

Turning to `Oc1cccc2ccc(N/N=C/c3cc(CN4CCCCC4)c(O)c4ncccc34)nc12`, the GI50 was 0.0401 µM and the TGI stood at 0.533 µM.

With `COC(=O)[C@H](C[C@H](Cc1ccccc1)NC(=O)c1csc([C@@H](C[C@H](C(C)C)N(C)C(=O)[C@@H](NC(=O)[C@H]2CCCCN2C)C(C)C)OC(C)=O)n1)NC(=O)OCc1ccccc1`, the GI50 was less than 0.0009 µM and the TGI was less than 0.0009 µM.

As for `O=C1c2cccnc2C(=O)c2nc3cc(N4CCN(C5CC5)CC4)ccc3nc21`, the GI50 is 1.68 µM and the TGI was 4.03 µM.

Take `CCN(CC)CC(C)Nc1ccc([N+](=O)[O-])c2sc3ccccc3c(=O)c12` (stereo not drawn): the GI50 was 1.81 µM and the TGI turned out to be 5.79 µM.

For the compound `CC(C)c1cc(-c2n[nH]c(=O)n2-c2ccc3c(ccn3C)c2)c(O)cc1O`, the GI50 was less than 0.0143 µM and the TGI is 0.327 µM.

As to `COc1ccc(/C(=C2/O[C@@H]([C@H]3COC(C)(C)O3)[C@H]3OC(C)(C)O[C@@H]23)c2cc(OC)c(OC)c(OC)c2)cc1O`, the GI50 was 25.6 µM and the TGI came out at 63.6 µM.

Turning to `CC1SC(c2ccccc2)N(CCc2cccs2)C1=O` (stereo not drawn), the GI50 is 2.43 µM and the TGI turned out to be 8.42 µM.

With `Cc1cc(N(CCCl)CCCl)ccc1C=Nc1ccc(-c2csc(Cc3ccccc3)n2)cc1`, the GI50 is 0.16 µM and the TGI amounted to 2.86 µM.

Consider `OC1CCN(CCCOc2c3ccc(Cl)cc3nc3c2oc2ccc(Cl)cc23)CC1`, for which the GI50 is 1.82 µM and the TGI was found to be 7.88 µM.

As for `COc1ccc2sc3c(NCCCN(C)C)nc4ccccc4c3c(=O)c2c1`, the GI50 was 1.62 µM and the TGI is 3.21 µM.

In the case of `O=C(O)/C=C\C(=O)N1C/C(=C\c2ccccc2Cl)C(=O)/C(=C/c2ccccc2Cl)C1`, the GI50 was 1.54 µM and the TGI was 3.46 µM.

For `CN(C)CC(=O)Nc1ccc(Cn2nnc3c2C(=O)c2nnn(Cc4ccc(NC(=O)CN(C)C)cc4)c2C3=O)cc1`, the GI50 is 0.104 µM and the TGI stood at 0.258 µM.

On to `CC#C[C@]1(O)CC[C@H]2[C@@H]3CCC4=CC(=O)CCC4=C3[C@@H](c3ccc4c(c3)OCO4)C[C@@]21C`, for which the GI50 was 101 µM and the TGI worked out at 559 µM.

In the case of `COc1ccc2nc(-c3ccc(-c4noc(-c5cc(OC)c(OC)c(OC)c5)n4)cc3)[nH]c2c1`, the GI50 was 6.54 µM and the TGI is 26.3 µM.

For the compound `CC1(C)CC(=O)c2c(C(F)(F)F)nn(-c3ccc(C(N)=O)c(NC4CCC(OC(=O)CN)CC4)c3)c2C1` (stereo not drawn), the GI50 was 0.0243 µM and the TGI was 0.0683 µM.
